# Read-outs that look alike come from different tables or passages of the source.
# Columns and labels:
# [1] = tested on: Factor IX; assay: Factor IX mRNA transfected in serum-free media, peptide detection by MALDI; type: cell-based, human; details: 8 peptides detected, 7 unique to Factor IX
# Text: The cell culture supernatant was collected and subjected to trypsin digestion before undergoing 2-dimensional HPLC separation of the peptides Matrix-assisted laser desorption/ionization was used to detect the peptides. 8 peptides were detected and 7 of the detected peptides are unique to Factor IX.
# [2] = for Serum Concentration 8-12 hours after administration: Factor IX; for Factor IX Protein Expression, Conc: mice IV, serum 8 hrs
# [3] = In vivo study of Factor IX mmRNA IM, serum Factor IX; details: mice IM, 2×100 ug/mouse in formulation buffer, 13 hours
# Experimental: Human Factor IX mmRNA (Gen1; fully modified 5-methylcytosine and pseudouridine) formulated in formulation buffer was delivered to mice via intramuscular injection.
# The mice were bled at 13 hours after the intramuscular injection to determine the concentration of human the polypeptide in serum in pg/mL.
# [4] = Intramuscular and subcutaneous delivery of human EPO mRNA in buffer, serum human EPO; type: in vivo, C57/BL6 mice; details: mice, 100 μg, 13 hours
# Experimental: (§1) Mice were intramuscularly or subcutaneously injected with 50 μl of the modified human EPO mRNA (h-EPO), modified luciferase mRNA (Luc) or the formulation buffer (F.Buffer) as described in the dosing chart Table 58. 13 hours post injection blood was collected and serum was analyzed to determine the amount human EPO for each mouse or rat.
# [5] = Intramuscular delivery of human EPO mRNA in buffer, serum human EPO; type: in vivo, Sprague-Dawley rats; details: rats, 100 μg, 13 hours
# Experimental: as §1
# [6] = Duration of activity after intramuscular delivery, serum human EPO; type: in vivo, Sprague-Dawley rats; details: rats, 100 μg, 24, 48 and 72 hour
# Experimental: The rats were bled 2, 6, 12, 24, 48 and 72 hours after the intramuscular injection to determine the concentration of human EPO in serum at a given time.
# [7] = Human G-CSF modified RNA lipoplex comparison I.M., S.C., G-CSF ELISA 13 hours; type: in vivo, C57/BL6 mice; details: mice I.M. or S.C., 100 μg, saline or lipoplex
# Experimental: A formulation containing 100 μg of either modified human G-CSF mRNA lipoplexed with 30% by volume of RNAIMAX™ with a 5-methylcytosine (5mc) and a pseudouridine (ψ) modification (G-CSF-Gen1-Lipoplex), modified human G-CSF mRNA with a 5mc and ψ modification in saline (G-CSF-Gen1-Saline), modified human G-CSF mRNA with a N1-5-methylcytosine (N1-5mc) and a ψ modification lipoplexed with 30% by volume of RNAIMAX™ (G-CSF-Gen2-Lipoplex), modified human G-CSF mRNA with a N1-5mc and ψ modification in saline (G-CSF-Gen2-Saline), modified luciferase with a 5mc and ψ modification lipoplexed with 30% by volume of RNAIMAX™ (Luc-Lipoplex), or modified luciferase mRNA with a 5mc and ψ modification in saline (Luc-Saline) was delivered intramuscularly (I.M.) or subcutaneously (S.C.) and a control group for each method of administration was giving a dose of 80 uL of the formulation buffer (F. Buffer) to C57/BL6 mice. 13 hours post injection serum and tissue from the site of injection were collected from each mouse and analyzed by G-CSF ELISA to compare human G-CSF protein levels. The results of the human G-CSF protein in mouse serum from the intramuscular administration and the subcutaneous administration results are shown in Table 55.
# [8] = tested on: IFN-alpha; assay: Cytokine study PBMC, IFN-alpha production ELISA; type: cell-based; details: human PBMC, Lipofectamine 2000
# Experimental: The plates were then incubated at 37 C.
# Each condition was done in duplicate
# Shown in Tables 69 and 70 are the average from 2 separate PBMC donors of the G-CSF and IFN-alpha production over time as measured by specific ELISA.
# [9] = tested on: neutrophil count; assay: Intravenous administration of lipoplexed G-CSF mRNA, neutrophil count; type: in vivo; details: mice IV, 50 ug RNA in 10% lipoplex at days 0, 2 and 4; day 5
# Experimental: Neutrophils were measured at days 1, 5 and 8. Controls included non-specific mammalian RNA or the formulation buffer alone (F.Buffer). The mice were bled at days 1, 5 and 8 to determine the effect of mRNA-encoded human G-CSF to increase neutrophil count. The dosing regimen is shown in Table 64 as are the resulting neutrophil counts (thousands/uL; K/uL).
# [10] = tested on: peripheral blood mononuclear cells (PBMC); type: cell-based, human
# Experimental: (§2) 500 ng of G-CSF mRNA modified with 5-methylcytosine (5mC) and pseudouridine (pseudoU) or unmodified G-CSF mRNA was transfected with 0.4 uL of Lipofectamine 2000 into peripheral blood mononuclear cells (PBMC) from three normal blood donors (D1, D2, and D3). […] The supernatant was harvested 6 hours and 18 hours after transfection and run by ELISA to determine the protein expression. The expression of G-CSF, IFN-alpha, and TNF-alpha for Donor 1 is shown in Table 86, Donor 2 is shown in Table 87 and Donor 3 is shown in Table 88.
# [11] = tested on: peripheral blood mononuclear cells (PBMC); assay: In vitro PBMC study, percent modification: IFN-alpha and TNF-alpha by ELISA, PC ratio; type: cell-based, human
# Experimental: The supernatant was harvested and run by ELISA 22 hours after transfection to determine the protein expression.
# [12] = tested on: peripheral blood mononuclear cells (PBMC); assay: Modified RNA transfected in PBMC: G-CSF by ELISA at 6 and 18 hours; type: cell-based, human; details: Donor 2, 18 hours
# Experimental: as §2
molecule,measurement,setting,value
"Factor IX Gen 1: Factor IX mRNA SEQ ID NO 10, Cap1, fully modified with 5-methylcytosine and pseudouridine",expression of Factor IX protein,[1],able to express full-length Factor IX protein
"Factor IX: human Factor IX mRNA, SEQ ID NO: 10, polyA about 160 nt, Cap1, fully modified with 5-methylcytosine and pseudouridine",Serum Concentration 8-12 hours after administration,"[2]; IM, 2 × 100 ug",~1.6 ng/mL
same,Serum Concentration 8-12 hours after administration,"[2]; IV (LNP), 1 ug",~40 ng/mL
same,Serum Concentration 8-12 hours after administration,"[2]; IV (LNP), 10 ug",~400 ng/mL
same,Serum Concentration 8-12 hours after administration,"[2]; IV (LNP), 100 ug","~3,000-10,000 ng/ml"
same,"Factor IX Protein Expression, Conc","[2]; LNP NPA-029-1, 10 ug",~380 ng/mL
same,"Factor IX Protein Expression, Conc","[2]; LNP NPA-029-1, 100 ug",3000 to 11000 ng/mL
same,concentration of Factor IX in serum,[3],1600 pg/mL
Luc,human EPO Average Level in serum,[4]; IM,0 pg/mL
same,human EPO Average Level in serum,[4]; SC,26.7 pg/mL
same,"human EPO in serum, Avg.",[5],24.5 pg/mL
same,"human EPO in serum, Geometric-mean",[5],22.4 pg/mL
same,"human EPO in serum, Avg.",[6],37.2 pg/mL
same,"human EPO in serum, Geometric-mean",[6],29.2 pg/mL
"Gen2 G-CSF mmRNA: human G-CSF mRNA, SEQ ID NO: 6, modified with 5-methylcytidine and N1-methylpseudouridine (nucleic acid, listed as Homo sapiens, 5-methylcytidine and N1-methylpseudouridine modified) GGGAAAUAAGAGAGAAAAGAAGAGUAAGAAGAAAUAUAAGAGCCACCAUGGCCGGUCCCGCGACCCAAAGCCCCAUGAAACUUAUGGCCCUGCAGUUGCUGCUUUGGCACUCGGCCCUCUGGACAGUCCAAGAAGCGACUCCUCUCGGACCUGCCUCAUCGUUGCCGCAGUCAUUCCUUUUGAAGUGUCUGGAGCAGGUGCGAAAGAUUCAGGGCGAUGGAGCCGCACUCCAAGAGAAGCUCUGCGCGACAUACAAACUUUGCCAUCCCGAGGAGCUCGUACUGCUCGGGCACAGCUUGGGGAUUCCCUGGGCUCCUCUCUCGUCCUGUCCGUCGCAGGCUUUGCAGUUGGCAGGGUGCCUUUCCCAGCUCCACUCCGGUUUGUUCUUGUAUCAGGGACUGCUGCAAGCCCUUGAGGGAAUCUCGCCAGAAUUGGGCCCGACGCUGGACACGUUGCAGCUCGACGUGGCGGAUUUCGCAACAACCAUCUGGCAGCAGAUGGAGGAACUGGGGAUGGCACCCGCGCUGCAGCCCACGCAGGGGGCAAUGCCGGCCUUUGCGUCCGCGUUUCAGCGCAGGGCGGGUGGAGUCCUCGUAGCGAGCCACCUUCAAUCAUUUUUGGAAGUCUCGUACCGGGUGCUGAGACAUCUUGCGCAGCCGUGAAGCGCUGCCUUCUGCGGGGCUUGCCUUCUGGCCAUGCCCUUCUUCUCUCCCUUGCACCUGUACCUCUUGGUCUUUGAAUAAAGCCUGAGUAGGAAG",human G-CSF protein production relative to 5-methylcytosine/pseudouridine modified human G-CSF mRNA,[7],increased human G-CSF protein production
same,"innate immune recognition, cytokines (IFN-alpha)",[8],did not significantly increase cytokines
"Unmodified G-CSF mRNA: human G-CSF mRNA, SEQ ID NO: 6, having no modifications (natural NTPs) (nucleic acid, listed as Homo sapiens) GGGAAAUAAGAGAGAAAAGAAGAGUAAGAAGAAAUAUAAGAGCCACCAUGGCCGGUCCCGCGACCCAAAGCCCCAUGAAACUUAUGGCCCUGCAGUUGCUGCUUUGGCACUCGGCCCUCUGGACAGUCCAAGAAGCGACUCCUCUCGGACCUGCCUCAUCGUUGCCGCAGUCAUUCCUUUUGAAGUGUCUGGAGCAGGUGCGAAAGAUUCAGGGCGAUGGAGCCGCACUCCAAGAGAAGCUCUGCGCGACAUACAAACUUUGCCAUCCCGAGGAGCUCGUACUGCUCGGGCACAGCUUGGGGAUUCCCUGGGCUCCUCUCUCGUCCUGUCCGUCGCAGGCUUUGCAGUUGGCAGGGUGCCUUUCCCAGCUCCACUCCGGUUUGUUCUUGUAUCAGGGACUGCUGCAAGCCCUUGAGGGAAUCUCGCCAGAAUUGGGCCCGACGCUGGACACGUUGCAGCUCGACGUGGCGGAUUUCGCAACAACCAUCUGGCAGCAGAUGGAGGAACUGGGGAUGGCACCCGCGCUGCAGCCCACGCAGGGGGCAAUGCCGGCCUUUGCGUCCGCGUUUCAGCGCAGGGCGGGUGGAGUCCUCGUAGCGAGCCACCUUCAAUCAUUUUUGGAAGUCUCGUACCGGGUGCUGAGACAUCUUGCGCAGCCGUGAAGCGCUGCCUUCUGCGGGGCUUGCCUUCUGGCCAUGCCCUUCUUCUCUCCCUUGCACCUGUACCUCUUGGUCUUUGAAUAAAGCCUGAGUAGGAAG",increase in neutrophil count above control,[9],no pharmacologic effect on neutrophil counts
"100% modification: G-CSF mRNA (SEQ ID NO 6, Cap1) completely modified with 5mC and pseudoU (nucleic acid, listed as Homo sapiens, Cap1; 5-methylcytidine, pseudouridine) GGGAAAUAAGAGAGAAAAGAAGAGUAAGAAGAAAUAUAAGAGCCACCAUGGCCGGUCCCGCGACCCAAAGCCCCAUGAAACUUAUGGCCCUGCAGUUGCUGCUUUGGCACUCGGCCCUCUGGACAGUCCAAGAAGCGACUCCUCUCGGACCUGCCUCAUCGUUGCCGCAGUCAUUCCUUUUGAAGUGUCUGGAGCAGGUGCGAAAGAUUCAGGGCGAUGGAGCCGCACUCCAAGAGAAGCUCUGCGCGACAUACAAACUUUGCCAUCCCGAGGAGCUCGUACUGCUCGGGCACAGCUUGGGGAUUCCCUGGGCUCCUCUCUCGUCCUGUCCGUCGCAGGCUUUGCAGUUGGCAGGGUGCCUUUCCCAGCUCCACUCCGGUUUGUUCUUGUAUCAGGGACUGCUGCAAGCCCUUGAGGGAAUCUCGCCAGAAUUGGGCCCGACGCUGGACACGUUGCAGCUCGACGUGGCGGAUUUCGCAACAACCAUCUGGCAGCAGAUGGAGGAACUGGGGAUGGCACCCGCGCUGCAGCCCACGCAGGGGGCAAUGCCGGCCUUUGCGUCCGCGUUUCAGCGCAGGGCGGGUGGAGUCCUCGUAGCGAGCCACCUUCAAUCAUUUUUGGAAGUCUCGUACCGGGUGCUGAGACAUCUUGCGCAGCCGUGAAGCGCUGCCUUCUGCGGGGCUUGCCUUCUGGCCAUGCCCUUCUUCUCUCCCUUGCACCUGUACCUCUUGGUCUUUGAAUAAAGCCUGAGUAGGAAG",IFN-alpha,[10],1 pg/mL
same,TNF-alpha Expression,[11],11.1 pg/mL
same,"better ratio of protein/cytokine production than natural G-CSF mRNA, IFN-alpha",[11],100 fold
same,"better ratio of protein/cytokine production than natural G-CSF mRNA, TNF-alpha",[11],27 fold
same,G-CSF,[12],432 pg/mL

# Source: patent US20200164038A1, “MODIFIED NUCLEOSIDE, NUCLEOTIDE, AND NUCLEIC ACID COMPOSITIONS” (ModernaTX, Inc., priority 2011, published 2020)
